According to patent US20240239775A1, “FXR REGULATOR, PREPARATION METHOD THEREFOR, PHARMACEUTICAL COMPOSITION THEREOF AND USE THEREOF” (QINGDAO RUIJI MEDICAL TECHNOLOGY CO., LTD., priority 2021, published 2024):

Molecular target: T1, FXR (Homo sapiens, UniProt Q96RI1)
T1 construct: 5 μL of 20 nM FXR-LBD Complete Coregulator buffer G; purchased ThermoFisher PV4833
T1 sequence (Q96RI1 262-486 limits assumed): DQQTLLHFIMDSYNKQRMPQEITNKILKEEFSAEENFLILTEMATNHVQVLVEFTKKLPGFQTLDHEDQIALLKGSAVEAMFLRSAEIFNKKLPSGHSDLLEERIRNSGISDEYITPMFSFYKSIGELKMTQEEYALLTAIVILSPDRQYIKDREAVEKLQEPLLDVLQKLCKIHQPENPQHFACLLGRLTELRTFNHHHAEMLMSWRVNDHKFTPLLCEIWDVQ
Assay: FXR antagonist screening by TR-FRET (LanthaScreen TR-FRET FXR co-activation assay kit)
Type: biochemical
Conditions: Table 1.2, FXR antagonistic activity; TR-FRET with CDCA; geometric means of at least two independent runs
Description: FXR activity was evaluated by time-resolved fluorescence resonance energy transfer (TR-FRET) assay, using LanthaScreen™ TR-FRET FXR co-activation assay kit (ThermoFisher, Cat. PV4833). For agonist screening, 10 μL of Complete Coregulator buffer G containing the corresponding concentration of the compound to be tested, 5 μL of 20 nM FXR-LBD Complete Coregulator buffer G, and 5 μL of 2.0 μM Fluorescein-SRC2-2/20 nM Tb-anti-GST antibody Complete Coregulator buffer G were added to each well of a 384-well black plate (Coring) in sequence. […] Three duplicate wells were set up for each compound, with CDCA as the positive compound and DMSO as the solvent control. For antagonist screening, 5 μL of Complete Coregulator buffer G containing the corresponding concentration of the compound to be tested, 5 μL of 20 nM FXR-LBD Complete Coregulator buffer G, 5 μL of 200 μM CDCA FXR-LBD Complete Coregulator buffer G, and 5 μL of 2.0 μM Fluorescein-SRC2-2/20 nM Tb-anti-GST antibody Complete Coregulator buffer G were added to each well of a 384-well black plate (Coring) in sequence and incubated at room temperature for 10 h. Following operations were the same as those for agonist screening

Row | SMILES | IC50
1 | Cc1cc(C)c(C(=O)N2CCN(c3ccccc3N(CCc3ccccc3)S(=O)(=O)c3ccc4oc(C(=O)O)c(C)c4c3)CC2)c(C)c1 [Example F27-S135, 5-(N-(2-(4-(2,4,6-trimethylbenzoyl)piperazin-1-yl)phenyl)-N-phenethylsulfamoyl)3-methylbenzofuran-2-carboxylic acid] | 0.1 to 10 µM
2 | COc1ccccc1C(=O)N1CCN(c2ccccc2N(CCc2ccccc2)S(=O)(=O)c2ccc3oc(C(=O)O)c(C)c3c2)CC1 [Example F27-S136, 5-(N-(2-(4-(2-methoxybenzoyl)piperazin-1-yl)phenyl)-N-phenethylsulfamoyl)3-methylbenzofuran-2-carboxylic acid] | 0.1 to 10 µM
3 | Cc1ccc(C)c(C(=O)N2CCN(c3ccccc3N(CCc3ccccc3)S(=O)(=O)c3ccc4oc(C(=O)O)c(C)c4c3)CC2)c1 [Example F27-S137, 5-(N-(2-(4-(2,5-Dimethylbenzoyl)piperazin-1-yl)phenyl)-N-phenethylsulfamoyl)3-methylbenzofuran-2-carboxylic acid] | 0.1 to 10 µM
4 | Cc1c(C(=O)O)oc2ccc(S(=O)(=O)N(CCc3ccccc3)c3ccccc3N3CCN(C(=O)c4ccc(C#Cc5ccccc5)cc4)CC3)cc12 [Example F27-S138, 5-(N-(2-(4-(4-(phenylethynyl)benzoyl)piperazin-1-yl)phenyl)-N-phenethylsulfamoyl)3-methylbenzofuran-2-carboxylic acid] | 0.1 to 10 µM
5 | Cc1ccc(C(=O)N2CCN(c3ccccc3N(CCc3ccccc3)S(=O)(=O)c3ccc4oc(C(=O)O)c(C)c4c3)CC2)s1 [Example F27-S139, 5-(N-(2-(4-(5-methylthiophene-2-formyl)piperazin-1-yl)phenyl)-N-phenethylsulfamoyl)3-methylbenzofuran-2-carboxylic acid] | 0.1 to 10 µM
6 | Cc1csc(C(=O)N2CCN(c3ccccc3N(CCc3ccccc3)S(=O)(=O)c3ccc4oc(C(=O)O)c(C)c4c3)CC2)c1 [Example F27-S140, 5-(N-(2-(4-(4-methylthiophene-2-formyl)piperazin-1-yl)phenyl)-N-phenethylsulfamoyl)3-methylbenzofuran-2-carboxylic acid] | 0.1 to 10 µM
7 | Cc1ccsc1C(=O)N1CCN(c2ccccc2N(CCc2ccccc2)S(=O)(=O)c2ccc3oc(C(=O)O)c(C)c3c2)CC1 [Example F27-S141, 5-(N-(2-(4-(3-methylthiophene-2-formyl)piperazin-1-yl)phenyl)-N-phenethylsulfamoyl)3-methylbenzofuran-2-carboxylic acid] | 0.1 to 10 µM
8 | Cc1c(C(=O)O)oc2ccc(S(=O)(=O)N(CCc3ccccc3)c3ccccc3N3CCN(C(=O)c4ncc[nH]4)CC3)cc12 [Example F27-S142, 5-(N-(2-(4-(1H-imidazole-2-formyl)piperazin-1-yl)phenyl)-N-phenethylsulfamoyl)3-methylbenzofuran-2-carboxylic acid] | 0.1 to 10 µM
9 | Cc1c(C(=O)O)oc2ccc(S(=O)(=O)N(CCc3ccccc3)c3ccccc3N3CCN(C(=O)C4CCCS4)CC3)cc12 (stereo not shown) [Example F27-S143, 5-(N-(2-(4-(tetrahydrothiophene-2-formyl)piperazin-1-yl)phenyl)-N-phenethylsulfamoyl)3-methyl benzofuran-2-carboxylic acid] | 0.1 to 10 µM
10 | Cc1c(C(=O)O)oc2ccc(S(=O)(=O)N(CCc3ccccc3)c3ccccc3N3CCN(C(=O)c4c[nH]cn4)CC3)cc12 [Example F27-S144, 5-(N-(2-(4-(1H-imidazole-4-formyl)piperazin-1-yl)phenyl)-N-phenethylsulfamoyl)3-methylbenzofuran-2-carboxylic acid] | 0.1 to 10 µM
11 | CCC(CC)C(=O)N1CCN(c2ccccc2N(CCc2ccccc2)S(=O)(=O)c2ccc3oc(C(=O)O)c(C)c3c2)CC1 [Example F27-S145, 5-(N-(2-(4-(2-ethylbutyryl)piperazin-1-yl)phenyl)-N-phenethylsulfamoyl)3-methylbenzofuran-2-carboxylic acid] | 0.1 to 10 µM
12 | Cc1c(C(=O)O)oc2ccc(S(=O)(=O)N(CCc3ccccc3)c3ccccc3N3CCN(C(=O)c4ccno4)CC3)cc12 [Example F27-S146, 5-(N-(2-(4-(isoxazole-5-carbonyl)piperazin-1-yl)phenyl)-N-phenethylsulfamoyl)3-methylbenzofuran-2-carboxylic acid] | 0.1 to 10 µM
13 | Cc1c(C(=O)O)oc2ccc(S(=O)(=O)N(CCc3ccccc3)c3ccccc3N3CCC(NC(=O)c4sccc4Br)CC3)cc12 [Example F27-S147, 5-(N-(2-(4-(3-bromothiophene-2-carboxamido)piperidin-1-yl)phenyl)-N-phenethylsulfamoyl)-3-methylbenzofuran-2-carboxylic acid] | 0.1 to 10 µM
14 | Cc1c(C(=O)O)oc2ccc(S(=O)(=O)N(CCc3ccccc3)c3ccccc3N3CCC4(CCN(C(=O)c5sccc5Br)C4)CC3)cc12 [Example F27-S148] | 0.1 to 10 µM
15 | Cc1c(C(=O)O)oc2ccc(S(=O)(=O)N(CCc3ccccc3)c3ccccc3N3CC4(CCN(C(=O)c5sccc5Br)CC4)C3)cc12 [Example F27-S149, 5-(N-(2-(7-(3-bromothiophene-2-carbonyl)-2,7-diazaspiro[3.5]nonan-2-yl)phenyl)-N-phenethylsulfamoyl)-3-methylbenzofuran-2-carboxylic acid] | 0.1 to 10 µM
16 | Cc1c(C(=O)O)oc2ccc(S(=O)(=O)N(CCc3ccccc3)c3ccccc3N3CCC4(CC3)CN(C(=O)c3sccc3Br)C4)cc12 [Example F27-S150] | 0.1 to 10 µM
17 | Cc1c(C(=O)O)oc2ccc(S(=O)(=O)N(CCc3ccccc3)c3ccccc3N3CC4CC(C3)N4C(=O)c3sccc3Br)cc12 [Example F27-S151, 5-(N-(2-(6-(3-bromothiophene-2-carbonyl)-3,6-diazabicyclo[3.1.1]heptan-3-yl)phenyl)-N-phenethylsulfamoyl)-3-methylbenzofuran-2-carboxylic acid] | 0.1 to 10 µM
18 | Cc1c(C(=O)O)oc2ccc(S(=O)(=O)N(CCc3ccccc3)c3ccccc3N3CCN(C(=O)c4sccc4Br)C[C@@H]3C)cc12 [Example F27-S152, (S)-5-(N-(2-(4-(3-bromothiophene-2-carbonyl)-2-methylpiperazin-1-yl)phenyl)-N-phenethylsulfamoyl)-3-methylbenzofuran-2-carboxylic acid] | 0.1 to 10 µM
19 | Cc1c(C(=O)O)oc2ccc(S(=O)(=O)N(CCc3ccccc3)c3ccccc3N3CCN(C(=O)c4sccc4Br)C[C@H]3C)cc12 [Example F27-S153, (R)-5-(N-(2-(4-(3-bromothiophene-2-carbonyl)-2-methylpiperazin-1-yl)phenyl)-N-phenethylsulfamoyl)-3-methylbenzofuran-2-carboxylic acid] | 0.1 to 10 µM
20 | Cc1c(C(=O)O)oc2ccc(S(=O)(=O)N(CCc3ccccc3)c3ccccc3N3CCCN(C(=O)c4sccc4Br)CC3)cc12 [Example F27-S154, 5-(N-(2-(4-(3-bromothiophene-2-formyl)-1,4-diazepin-1-yl)phenyl)-N-phenethylsulfamoyl)3-methylbenzofuran-2-carboxylic acid] | 0.1 to 10 µM
21 | Cc1c(C(=O)O)oc2ccc(S(=O)(=O)N(CCc3ccccc3)c3ccccc3N3C4CCC3CN(C(=O)c3sccc3Br)C4)cc12 [Example F27-S155, 5-(N-(2-(3-(3-bromothiophene-2-formyl)-3,8-diazepine[3.2.1]cyclooctan-8-yl)phenyl)-N-phenethylsulfamoyl)3-methylbenzofuran-2-carboxylic acid] | 0.1 to 10 µM
22 | Cc1c(C(=O)O)oc2ccc(S(=O)(=O)N(CCc3ccccc3)c3ccccc3N3CCN(C(=O)c4sccc4Br)C(C)C3)cc12 (stereo not shown) [Example F27-S156, 5-(N-(2-(4-(3-bromothiophene-2-formyl)-3-methylpiperazin-1-yl)phenyl)-N-phenethylsulfamoyl)3-methylbenzofuran-2-carboxylic acid] | 0.1 to 10 µM
23 | Cc1c(C(=O)O)oc2ccc(S(=O)(=O)N(CCc3ccccc3)c3ccccc3N3CC4CC3CN4C(=O)c3sccc3Br)cc12 (stereo not shown) [Example F27-S157, 5-(N-(2-(5-(3-bromothiophene-2-formyl)-2,5-diazabicyclo[2.2.1]hept-2-yl)phenyl)-N-phenethylsulfamoyl)3-methylbenzofuran-2-carboxylic acid] | 0.1 to 10 µM
24 | Cc1c(C(=O)O)sc2ccc(S(=O)(=O)N(CCc3ccccc3)c3ccccc3N3CCN(C(=O)c4sccc4Br)CC3)cc12 [Example F27-S158, 5-(N-(2-(4-(3-bromothiophene-2-carbonyl)piperazin-1-yl)phenyl)-N-phenethylsulfamoyl)-3-toluothiophene-2-carboxylic acid] | 0.1 to 10 µM
25 | O=C(O)c1cc2cc(S(=O)(=O)N(CCc3ccccc3)c3ccccc3N3CCN(C(=O)c4sccc4Br)CC3)ccc2s1 [Example F27-S159, 5-(N-(2-(4-(3-bromothiophene-2-carbonyl)piperazin-1-yl)phenyl)-N-phenethylsulfamoyl)benzo[b]thiophene-2-carboxylic acid] | 0.1 to 10 µM
